# Reference: ChEMBL document CHEMBL5653615 (J Biol Chem, 2013)
# How the values were obtained:
# [1] = target: T1, Serine/threonine-protein kinase 3 (Homo sapiens) (UniProt Q13188); assay: Inhibition of human STK3 at 18.6 nM by HotSpot assay relative to control
# T1 sequence (whole entry): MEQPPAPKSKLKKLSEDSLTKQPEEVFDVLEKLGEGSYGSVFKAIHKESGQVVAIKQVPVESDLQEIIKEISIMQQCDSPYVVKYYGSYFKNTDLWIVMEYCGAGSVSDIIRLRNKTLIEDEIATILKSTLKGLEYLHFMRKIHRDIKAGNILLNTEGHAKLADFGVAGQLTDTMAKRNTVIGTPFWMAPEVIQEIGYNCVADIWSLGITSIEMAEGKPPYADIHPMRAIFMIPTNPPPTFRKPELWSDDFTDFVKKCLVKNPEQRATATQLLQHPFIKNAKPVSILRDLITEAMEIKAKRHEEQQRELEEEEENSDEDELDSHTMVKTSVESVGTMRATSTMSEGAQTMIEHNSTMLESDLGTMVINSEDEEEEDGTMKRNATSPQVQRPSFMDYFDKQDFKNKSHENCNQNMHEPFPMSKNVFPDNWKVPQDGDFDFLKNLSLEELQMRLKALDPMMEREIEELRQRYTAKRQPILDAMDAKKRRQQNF
# [2] = target: Protein-tyrosine kinase 6 (Homo sapiens) (UniProt Q13882); assay: Inhibition of human BRK at 18.6 nM by HotSpot assay relative to control
# Protein-tyrosine kinase 6 (Homo sapiens), sequence (Q13882 whole entry, looked up): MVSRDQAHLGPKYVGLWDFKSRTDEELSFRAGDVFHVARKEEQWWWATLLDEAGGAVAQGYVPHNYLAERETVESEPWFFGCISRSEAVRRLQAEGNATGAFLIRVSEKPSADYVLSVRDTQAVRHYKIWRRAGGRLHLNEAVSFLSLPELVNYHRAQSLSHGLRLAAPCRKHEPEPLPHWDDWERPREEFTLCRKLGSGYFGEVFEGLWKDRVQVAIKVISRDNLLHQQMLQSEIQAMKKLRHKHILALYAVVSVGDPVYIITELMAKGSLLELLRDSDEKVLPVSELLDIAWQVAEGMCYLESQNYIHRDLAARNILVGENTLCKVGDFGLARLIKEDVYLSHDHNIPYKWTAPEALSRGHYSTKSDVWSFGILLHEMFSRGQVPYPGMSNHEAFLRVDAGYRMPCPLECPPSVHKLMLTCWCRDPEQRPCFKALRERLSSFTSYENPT
# [3] = target: ALK tyrosine kinase receptor (Homo sapiens) (UniProt Q9UM73); assay: Inhibition of human ALK at 18.6 nM by HotSpot assay relative to control
# ALK tyrosine kinase receptor (Homo sapiens), sequence (Q9UM73 19-1620 limits assumed): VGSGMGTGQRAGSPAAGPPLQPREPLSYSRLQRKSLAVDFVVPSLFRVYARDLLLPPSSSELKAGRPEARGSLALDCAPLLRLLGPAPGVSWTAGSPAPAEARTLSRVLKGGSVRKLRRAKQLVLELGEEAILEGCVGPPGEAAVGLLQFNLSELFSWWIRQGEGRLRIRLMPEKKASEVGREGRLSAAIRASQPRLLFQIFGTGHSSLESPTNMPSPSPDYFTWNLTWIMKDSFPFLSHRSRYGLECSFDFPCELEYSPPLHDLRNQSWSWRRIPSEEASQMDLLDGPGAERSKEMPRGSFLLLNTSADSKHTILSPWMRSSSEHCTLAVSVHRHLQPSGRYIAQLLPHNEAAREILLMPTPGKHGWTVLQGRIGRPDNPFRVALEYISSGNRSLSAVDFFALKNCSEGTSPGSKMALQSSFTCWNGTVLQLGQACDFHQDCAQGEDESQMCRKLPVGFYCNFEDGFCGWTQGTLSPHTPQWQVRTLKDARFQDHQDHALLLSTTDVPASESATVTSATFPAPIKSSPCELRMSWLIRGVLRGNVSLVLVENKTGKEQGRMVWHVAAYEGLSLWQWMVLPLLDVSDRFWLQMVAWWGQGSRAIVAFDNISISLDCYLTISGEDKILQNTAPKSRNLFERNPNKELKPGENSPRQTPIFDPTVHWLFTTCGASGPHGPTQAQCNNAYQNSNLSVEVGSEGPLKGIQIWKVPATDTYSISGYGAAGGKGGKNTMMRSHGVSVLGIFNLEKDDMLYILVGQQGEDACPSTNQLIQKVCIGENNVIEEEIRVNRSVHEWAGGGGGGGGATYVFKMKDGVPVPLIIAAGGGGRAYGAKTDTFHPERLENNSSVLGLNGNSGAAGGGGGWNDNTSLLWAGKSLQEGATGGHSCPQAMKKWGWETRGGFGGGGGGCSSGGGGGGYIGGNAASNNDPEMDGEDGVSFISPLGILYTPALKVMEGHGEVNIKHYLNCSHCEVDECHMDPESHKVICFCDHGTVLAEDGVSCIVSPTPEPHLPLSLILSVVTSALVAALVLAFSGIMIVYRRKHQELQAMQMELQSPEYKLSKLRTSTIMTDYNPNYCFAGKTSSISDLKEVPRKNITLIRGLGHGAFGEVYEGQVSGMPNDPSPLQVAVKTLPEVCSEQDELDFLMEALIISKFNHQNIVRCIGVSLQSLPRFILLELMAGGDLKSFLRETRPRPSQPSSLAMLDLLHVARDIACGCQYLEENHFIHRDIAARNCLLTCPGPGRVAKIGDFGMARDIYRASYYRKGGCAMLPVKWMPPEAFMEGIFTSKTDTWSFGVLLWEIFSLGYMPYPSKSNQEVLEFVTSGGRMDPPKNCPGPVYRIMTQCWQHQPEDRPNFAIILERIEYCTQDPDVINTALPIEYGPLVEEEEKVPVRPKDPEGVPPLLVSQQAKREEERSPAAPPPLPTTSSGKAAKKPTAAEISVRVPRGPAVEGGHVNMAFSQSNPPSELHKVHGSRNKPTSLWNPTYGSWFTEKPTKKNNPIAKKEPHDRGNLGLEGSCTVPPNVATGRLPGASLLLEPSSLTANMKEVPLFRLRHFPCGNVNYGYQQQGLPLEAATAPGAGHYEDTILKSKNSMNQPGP
# [4] = target: T2, Dual specificity tyrosine-phosphorylation-regulated kinase 2 (Homo sapiens) (UniProt Q92630); assay: Inhibition of human DYRK2 at 18.6 nM by HotSpot assay relative to control
# T2 sequence (whole entry): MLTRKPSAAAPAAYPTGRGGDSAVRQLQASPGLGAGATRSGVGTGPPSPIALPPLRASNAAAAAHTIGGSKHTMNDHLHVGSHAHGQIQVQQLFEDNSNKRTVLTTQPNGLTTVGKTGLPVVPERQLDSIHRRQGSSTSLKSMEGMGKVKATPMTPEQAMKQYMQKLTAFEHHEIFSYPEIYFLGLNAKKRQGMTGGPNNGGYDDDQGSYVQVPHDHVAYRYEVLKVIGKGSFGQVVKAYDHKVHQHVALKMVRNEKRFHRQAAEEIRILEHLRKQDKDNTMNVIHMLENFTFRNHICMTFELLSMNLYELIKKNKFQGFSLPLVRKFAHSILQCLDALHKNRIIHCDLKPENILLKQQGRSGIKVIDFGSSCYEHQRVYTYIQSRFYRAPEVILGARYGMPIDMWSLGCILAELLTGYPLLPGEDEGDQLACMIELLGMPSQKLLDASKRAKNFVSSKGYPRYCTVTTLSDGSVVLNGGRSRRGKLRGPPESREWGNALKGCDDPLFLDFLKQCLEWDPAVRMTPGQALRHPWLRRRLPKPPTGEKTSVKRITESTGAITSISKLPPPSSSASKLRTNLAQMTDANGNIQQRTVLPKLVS
# [5] = target: Casein kinase I isoform delta (Homo sapiens) (UniProt P48730); assay: Inhibition of human CK1d at 18.6 nM by HotSpot assay relative to control
# Casein kinase I isoform delta (Homo sapiens), sequence (P48730 whole entry, looked up, canonical isoform): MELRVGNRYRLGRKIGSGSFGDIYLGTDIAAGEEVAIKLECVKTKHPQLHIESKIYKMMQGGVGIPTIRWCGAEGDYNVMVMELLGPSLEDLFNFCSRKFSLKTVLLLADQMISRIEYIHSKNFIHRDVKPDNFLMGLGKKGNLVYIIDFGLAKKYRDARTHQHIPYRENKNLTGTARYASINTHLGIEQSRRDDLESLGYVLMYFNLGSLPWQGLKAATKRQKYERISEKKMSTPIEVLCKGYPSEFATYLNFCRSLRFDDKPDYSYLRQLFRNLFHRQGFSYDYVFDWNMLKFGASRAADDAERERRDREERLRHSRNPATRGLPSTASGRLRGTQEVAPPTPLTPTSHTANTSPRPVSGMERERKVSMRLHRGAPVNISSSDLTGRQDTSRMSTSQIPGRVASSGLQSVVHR
# [6] = target: Protein kinase C delta type (Homo sapiens) (UniProt Q05655); assay: Inhibition of human PKCd at 18.6 nM by HotSpot assay relative to control
# Protein kinase C delta type (Homo sapiens), sequence (Q05655 whole entry, looked up): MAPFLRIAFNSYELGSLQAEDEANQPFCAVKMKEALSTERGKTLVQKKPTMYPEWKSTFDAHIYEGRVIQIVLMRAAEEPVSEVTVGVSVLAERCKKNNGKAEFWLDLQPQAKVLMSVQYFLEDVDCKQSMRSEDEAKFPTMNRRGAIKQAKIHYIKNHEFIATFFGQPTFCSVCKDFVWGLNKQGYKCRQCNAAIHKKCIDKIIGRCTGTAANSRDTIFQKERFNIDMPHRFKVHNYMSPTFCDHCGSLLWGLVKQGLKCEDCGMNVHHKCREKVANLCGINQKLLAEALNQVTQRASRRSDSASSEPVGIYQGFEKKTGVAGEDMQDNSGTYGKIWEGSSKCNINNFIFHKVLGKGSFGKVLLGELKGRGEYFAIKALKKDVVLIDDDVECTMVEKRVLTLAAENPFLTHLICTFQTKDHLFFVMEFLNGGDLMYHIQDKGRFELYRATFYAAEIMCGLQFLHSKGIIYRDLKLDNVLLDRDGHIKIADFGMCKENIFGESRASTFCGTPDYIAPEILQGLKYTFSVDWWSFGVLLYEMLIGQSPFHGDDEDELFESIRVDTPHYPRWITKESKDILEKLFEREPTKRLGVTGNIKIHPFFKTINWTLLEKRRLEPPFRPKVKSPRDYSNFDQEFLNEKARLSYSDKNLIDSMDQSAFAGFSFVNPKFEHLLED
# [7] = target: Protein kinase C gamma type (Homo sapiens) (UniProt P05129); assay: Inhibition of human PKCg at 18.6 nM by HotSpot assay relative to control
# [8] = target: Dual specificity tyrosine-phosphorylation-regulated kinase 1B (Homo sapiens) (UniProt Q9Y463); assay: Inhibition of human DYRK1B at 1.82 nM by HotSpot assay relative to control
# Dual specificity tyrosine-phosphorylation-regulated kinase 1B (Homo sapiens), sequence (Q9Y463 whole entry, looked up): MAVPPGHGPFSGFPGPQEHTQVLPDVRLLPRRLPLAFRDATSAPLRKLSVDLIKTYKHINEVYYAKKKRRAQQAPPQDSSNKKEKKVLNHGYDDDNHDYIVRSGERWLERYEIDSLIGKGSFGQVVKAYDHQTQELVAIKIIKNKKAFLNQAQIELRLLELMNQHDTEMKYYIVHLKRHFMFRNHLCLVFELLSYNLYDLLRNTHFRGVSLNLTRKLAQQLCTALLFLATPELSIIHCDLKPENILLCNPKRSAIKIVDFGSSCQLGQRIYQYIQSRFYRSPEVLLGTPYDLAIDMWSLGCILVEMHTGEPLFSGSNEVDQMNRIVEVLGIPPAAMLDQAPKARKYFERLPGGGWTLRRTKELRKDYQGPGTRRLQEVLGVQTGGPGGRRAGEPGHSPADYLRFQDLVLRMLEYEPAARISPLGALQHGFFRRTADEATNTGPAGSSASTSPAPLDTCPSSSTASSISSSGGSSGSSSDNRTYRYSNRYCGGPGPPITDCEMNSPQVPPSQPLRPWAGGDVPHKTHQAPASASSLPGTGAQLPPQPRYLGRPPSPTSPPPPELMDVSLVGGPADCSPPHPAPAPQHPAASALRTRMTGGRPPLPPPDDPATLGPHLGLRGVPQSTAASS
# [9] = target: Mitogen-activated protein kinase 10 (Homo sapiens) (UniProt P53779); assay: Inhibition of human JNK3 at 1.82 nM by HotSpot assay relative to control
# Mitogen-activated protein kinase 10 (Homo sapiens), sequence (P53779 whole entry): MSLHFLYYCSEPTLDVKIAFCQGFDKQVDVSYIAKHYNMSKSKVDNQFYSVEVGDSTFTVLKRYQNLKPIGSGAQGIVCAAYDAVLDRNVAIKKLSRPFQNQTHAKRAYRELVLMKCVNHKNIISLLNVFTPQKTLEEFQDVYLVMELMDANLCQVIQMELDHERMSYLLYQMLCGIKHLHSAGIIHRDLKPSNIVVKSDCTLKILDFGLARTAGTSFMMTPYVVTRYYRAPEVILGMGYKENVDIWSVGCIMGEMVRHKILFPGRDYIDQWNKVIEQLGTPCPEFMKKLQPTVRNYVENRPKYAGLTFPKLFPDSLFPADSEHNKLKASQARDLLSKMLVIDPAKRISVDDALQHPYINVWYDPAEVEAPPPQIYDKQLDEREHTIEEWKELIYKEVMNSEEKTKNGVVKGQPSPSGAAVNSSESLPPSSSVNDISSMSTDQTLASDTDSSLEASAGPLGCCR
# [10] = target: T1, Serine/threonine-protein kinase 3 (Homo sapiens); assay: Inhibition of human STK3 at 1.82 nM by HotSpot assay relative to control
# [11] = target: T3, Serine/threonine-protein kinase haspin (Homo sapiens) (UniProt Q8TF76); assay: Inhibition of human Haspin at 1.82 nM by HotSpot assay relative to control
# T3 sequence (whole entry): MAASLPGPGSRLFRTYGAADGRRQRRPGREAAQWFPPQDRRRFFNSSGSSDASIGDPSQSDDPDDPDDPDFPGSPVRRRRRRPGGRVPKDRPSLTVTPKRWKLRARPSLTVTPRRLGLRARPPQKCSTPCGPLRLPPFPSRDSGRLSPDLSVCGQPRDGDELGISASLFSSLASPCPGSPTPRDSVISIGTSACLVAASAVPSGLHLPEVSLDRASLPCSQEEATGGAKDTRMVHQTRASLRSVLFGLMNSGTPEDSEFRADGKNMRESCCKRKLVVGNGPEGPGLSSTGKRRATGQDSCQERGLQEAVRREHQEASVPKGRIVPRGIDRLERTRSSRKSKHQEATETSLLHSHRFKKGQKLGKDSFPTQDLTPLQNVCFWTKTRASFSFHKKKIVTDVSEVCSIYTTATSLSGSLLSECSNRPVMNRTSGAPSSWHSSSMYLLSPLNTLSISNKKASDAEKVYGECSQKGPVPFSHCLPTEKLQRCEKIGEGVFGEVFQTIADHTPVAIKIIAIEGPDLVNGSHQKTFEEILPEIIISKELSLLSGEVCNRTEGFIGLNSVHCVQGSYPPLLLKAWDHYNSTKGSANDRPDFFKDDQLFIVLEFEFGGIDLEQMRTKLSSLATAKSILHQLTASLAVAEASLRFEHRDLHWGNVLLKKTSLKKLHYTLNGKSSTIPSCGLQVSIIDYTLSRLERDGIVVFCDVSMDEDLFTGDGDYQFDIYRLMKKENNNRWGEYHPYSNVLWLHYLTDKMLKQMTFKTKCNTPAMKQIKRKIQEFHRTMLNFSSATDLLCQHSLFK
# Homo sapiens = species on record: Homo sapiens; assay: Inhibition of human TAO1 at 1.82 nM by HotSpot assay relative to control
inhibition [1] [%],inhibition [2] [%],inhibition [3] [%],inhibition [4] [%],inhibition [5] [%],inhibition [6] [%],inhibition [7] [%],inhibition [8] [%],inhibition [9] [%],inhibition [10] [%],inhibition [11] [%],inhibition (Homo sapiens) [%],Structure (SMILES)
-2.45,3.64,-6.1,-1.48,-2.47,-2,-8,–,–,–,–,–,C[C@]1(O)C[C@@H](c2nc(-c3ccc4ccc(-c5ccccc5)nc4c3)c3c(N)nccn32)C1
–,–,–,–,–,–,–,-1.57,-8.84,1.56,-1.25,1.46,C[C@@]1(C(=O)Nc2ccc(F)nc2)CCCN1c1nc(Nc2cc(C3CC3)n[nH]2)c2cccn2n1
